# Experimental data taken from PMC11110727, “Exploiting thiol-functionalized benzosiloxaboroles for achieving diverse substitution patterns – synthesis, characterization and biological evaluation of promising antibacterial agents” (RSC Medicinal Chemistry, 2024).
# Where two headings read alike, the source gives them in different places.
# What was measured:
# [1] = system: C. parapsilosis ATCC 22019; test: Antifungal activity: MIC/MFC, disc-diffusion; type: cell-based; conditions: for MIC: Lodderomyces parapsilosis, ATCC22019, read-out: MIC
# How it was run: (§1)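 Disc-diffusion and broth MIC assays followed EUCAST and CLSI recommendations; MBC/MFC were determined per CLSI. Strains were subcultured twice before testing (bacteria on tryptic soy agar, yeasts on Sabouraud dextrose agar, 24–48 h, 30 °C). Compounds were dissolved in DMSO.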
# [2] = system: C. tropicalis ATCC 750; test: Antifungal activity: MIC/MFC, disc-diffusion; type: cell-based; conditions: for MIC: Candida tropicalis, ATCC750, read-out: MIC
# How it was run: as §1
# [3] = system: C. guilliermondii IBA 155; test: Antifungal activity: MIC/MFC, disc-diffusion; type: cell-based; conditions: for MIC: Meyerozyma guilliermondii, IBA155, read-out: MIC
# How it was run: as §1
# [4] = system: C. tropicalis IBA 171; test: Antifungal activity: MIC/MFC, disc-diffusion; type: cell-based; conditions: for MIC: Candida tropicalis, IBA171, read-out: MIC
# How it was run: as §1
# [5] = system: A. baumannii ATCC 19606; test: Antibacterial activity: MIC/MBC, MIC with PAβN, disc-diffusion; type: cell-based, Acinetobacter baumannii; conditions: Acinetobacter baumannii, ATCC19606; A. baumannii ATCC 19606; read-out: MIC
# How it was run: (§2)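 Strains were subcultured twice on TSA at 30 °C. They were then tested by disc diffusion (EUCAST/CLSI), by CLSI broth-microdilution MIC in Mueller–Hinton II broth and by CLSI MBC, with compounds in DMSO.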
# [6] = system: P. aeruginosa ATCC 27853; test: as above; type: cell-based; conditions: Pseudomonas aeruginosa, ATCC27853; P. aeruginosa ATCC 27853; read-out: MIC
# How it was run: as §2
# [7] = system: S. aureus ATCC 6538P; test: Antibacterial activity: MIC/MBC determination and disc-diffusion; type: cell-based, Staphylococcus aureus; conditions: S. aureus ATCC 6538P; for diameter of inhibition zone: disc-diffusion, — = zone not observed; for MIC / MBC: Staphylococcus aureus, ATCC6538P; for MIC: read-out: MIC
# How it was run: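 Method: disc diffusion + MIC per EUCAST/CLSI; MBC/MFC per CLSI. Bacteria passaged twice on TSA, yeasts on Sabouraud agar, 24–48 h at 30 °C. Test compounds in DMSO.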
# [8] = system: E. cloacae DSM 6234; test: Antibacterial activity: MIC/MBC, MIC with PAβN, disc-diffusion; type: cell-based, Enterobacter cloacae; conditions: E. cloacae DSM 6234; for MIC: Enterobacter cloacae, DSM6234, read-out: MIC
# How it was run: as §2
# [9] = system: B. cepacia ATCC 25416; test: Antibacterial activity: MIC/MBC, disc-diffusion; type: cell-based, Burkholderia cepacia; conditions: Burkholderia cepacia, ATCC25416; B. cepacia ATCC 25416; read-out: MIC
# How it was run: as §2
# [10] = system: S. maltophilia ATCC 12714; test: Antibacterial activity: MIC/MBC, MIC with PAβN, disc-diffusion; type: cell-based, Stenotrophomonas maltophilia; conditions: Stenotrophomonas maltophilia, ATCC12714; S. maltophilia ATCC 12714; read-out: MIC
# How it was run: as §2
# [11] = read-out: MBC (first MBC where Eagle effect)
# [12] = value after the slash, read-out: second MBC (Eagle effect)
SMILES,"diameter of inhibition zone ([1]; C. parapsilosis ATCC 22019, (-) = zone not observed, paper discs 9 mm) [mm]",MIC [1] [µg/mL],"diameter of inhibition zone ([2]; C. tropicalis ATCC 750, (-) = zone not observed, paper discs 9 mm) [mm]",MIC [2] [µg/mL],"diameter of inhibition zone ([3]; C. guilliermondii IBA 155, (-) = zone not observed, paper discs 9 mm) [mm]",MIC [3] [µg/mL],"diameter of inhibition zone ([4]; C. tropicalis IBA 171, (-) = zone not observed, paper discs 9 mm) [mm]",MIC [4] [µg/mL],MIC [5] [µg/mL],MIC [6] [µg/mL],diameter of inhibition zone [7] [mm],MIC [7] [µg/mL],MIC [8] [µg/mL],MIC [9] [µg/mL],MIC [10] [µg/mL],"MBC [7, 11] [µg/mL]","MBC [7, 12] [µg/mL]","-fold reduction of MIC in the presence of PAβN ([8]; PAβN 20 μg mL^−1, MHB + 1 mM MgSO4)"
"C[Si]1(C)OB(O)c2ccc(SC3CC(=O)N(c4ccc(F)cc4)C3=O)c(F)c21 (centres unmarked) [Compound 15, 3-((7-Fluoro-3-hydroxy-1,1-dimethyl-1,3-dihydrobenzo[c][1,2,5]oxasilaborol-6-yl)thio)-1-(4-fluorophenyl)pyrrolidine-2,5-dione]",23,200,14,> 200,28,200,15,> 200,> 200,> 200,23,25,> 200,> 200,> 200,–,–,–
"C[Si]1(C)OB(O)c2cc(F)c(S)c(F)c21 [Compound 1e, 5,7-Difluoro-6-mercapto-1,1-dimethylbenzo[c][1,2,5]oxasilaborol-3(1H)-ol]",–,400,–,400,–,> 400,–,200,> 400,> 400,19,12.5,> 400,> 400,> 400,25,–,–
"Cc1cc(NC(=O)CCSc2c(F)cc3c(c2F)[Si](C)(C)OB3O)no1 [Compound 11, 3-((5,7-Difluoro-3-hydroxy-1,1-dimethyl-1,3-dihydrobenzo[c][1,2,5]oxasilaborol-6-yl)thio)-N-(5-methylisoxazol-3-yl)propanamide]",–,> 400,–,> 400,–,> 400,–,> 400,> 400,> 400,21,25,> 400,> 400,> 400,400,–,–
"C[Si]1(C)OB(O)c2ccc(SCC(=O)c3ccccc3)c(F)c21 [Compound 23, 2-((7-Fluoro-3-hydroxy-1,1-dimethyl-1,3-dihydrobenzo[c][1,2,5]oxasilaborol-6-yl)thio)-1-phenylethan-1-one]",–,400,–,400,–,> 400,–,400,> 400,> 400,31,1.56,> 400,> 400,> 400,3.12,200,–
"C[Si]1(C)OB(O)c2cc(F)c(SCCC#N)c(F)c21 [Compound 6, 3-((5,7-Difluoro-3-hydroxy-1,1-dimethyl-1,3-dihydrobenzo[c][1,2,5]oxasilaborol-6-yl)thio)propanenitrile]",–,> 400,–,> 400,–,> 400,–,> 400,> 400,> 400,30,6.25,> 400,> 400,> 400,12.5,> 400,–
"C[Si]1(C)OB(O)c2cc(F)c(SCCC(N)=O)c(F)c21 [Compound 7, 3-((5,7-Difluoro-3-hydroxy-1,1-dimethyl-1,3-dihydrobenzo[c][1,2,5]oxasilaborol-6-yl)thio)propanamide]",–,> 400,–,> 400,–,> 400,–,> 400,> 400,> 400,24,50,> 400,> 400,> 400,–,–,–
"C[Si]1(C)OB(O)c2cc(F)c(SCCS(=O)(=O)c3ccccc3)c(F)c21 [Compound 20, 5,7-Difluoro-1,1-dimethyl-6-((2-(phenylsulfonyl)ethyl)thio)benzo[c][1,2,5]oxasilaborol-3(1H)-ol]",–,> 400,–,> 400,–,> 400,–,> 400,> 400,> 400,30,3.12,> 400,> 400,> 400,12.5,200,4 -fold
"C[Si]1(C)OB(O)c2ccc(SCCS(=O)(=O)c3ccccc3)c(F)c21 [Compound 21, 7-Fluoro-1,1-dimethyl-6-((2-(phenylsulfonyl)ethyl)thio)benzo[c][1,2,5]oxasilaborol-3(1H)-ol]",–,400,–,> 400,–,> 400,–,400,> 400,> 400,26,12.5,> 400,> 400,> 400,200,–,–
"C[Si]1(C)OB(O)c2ccc(S)c(F)c21 [Compound 2e, 7-Fluoro-6-mercapto-1,1-dimethylbenzo[c][1,2,5]oxasilaborol-3(1H)-ol]",–,> 100,–,> 100,–,> 100,–,> 100,> 100,> 100,20,12.5,> 100,> 100,> 100,25,–,–
"C[Si]1(C)OB(O)c2cc(F)c(SCCC(=O)N3CCOCC3)c(F)c21 [Compound 8, 3-((5,7-Difluoro-3-hydroxy-1,1-dimethyl-1,3-dihydrobenzo[c][1,2,5]oxasilaborol-6-yl)thio)-1-morpholinopropan-1-one]",–,> 400,–,> 400,–,> 400,–,> 400,> 400,> 400,25,50,> 400,> 400,> 400,–,–,–
